The values below are quoted from earlier work in US20060234348A1, “Method of production of RNA polymerase protein” (priority 2005, published 2006).

For this data set, the target named is T1, RNase A (Bos taurus, UniProt P61823).
T1 sequence (P61823 27-150): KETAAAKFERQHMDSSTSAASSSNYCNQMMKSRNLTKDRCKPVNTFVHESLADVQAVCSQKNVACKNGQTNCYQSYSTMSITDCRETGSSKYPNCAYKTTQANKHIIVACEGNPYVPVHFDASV
Conditions: RNase A 10 μg/ml, 4 mM DTT, 4° C. for 20 minutes.

Turning to `O[C@H](CS)[C@H](O)CS` (racemic) [DTT, dithiothreitol], the “conversion of polyribosomes to monoribosomes by RNase A” value is recorded as “reduced the conversion of polyribosomes to monoribosomes”.
